Marks after values point to notes of the source that are not given here.
Columns and labels:
[1] = system: female SD rats; test: Leak point pressure (LPP) of a rat: intravesical pressure when urinary leakage occurs; assay type: in vivo; conditions: 3 mg/kg intravenous, 5 minutes after administration; for Leak point pressure (LPP): urethane-anesthetized, spinal cord-transected female SD rats, average ± standard error, physiological saline 24.6±0.6
[2] = system: stress urinary incontinence model rats; conditions: rat, in vivo

| Compound | LPP compared with the physiological saline group (in words) [1] | Leak point pressure (LPP) [1] [cmH2O] | Frequency of urinary incontinence, 30 minutes after administration [2] | Frequency of urinary incontinence, 2 hours after administration [2] | Number of rats that express urinary incontinence due to the electrical stimulus (in words) [2] | Frequency of urinary incontinence, before administration ([2]; po) |
| --- | --- | --- | --- | --- | --- | --- |
| CCCOC(C(=O)OC1CCN(C)CC1)(c1ccccc1)c1ccccc1 [propiverine, α,α-diphenyl-α-n-propoxy acetic acid 1-methyl-4-piperidyl ester, reference compound] | no significant difference | 24.9±1.9 |  |  |  |  |
| CCCOC(C(=O)OC1CCNCC1)(c1ccccc1)c1ccccc1 [the compound of the present invention, 4-piperidyl diphenylpropoxyacetate] | significantly higher | 31.1±2.3 | 4 | 3* | significantly decreased | 8 |
